Measured values published in patent US20090149520A1, “OXAZOLIDINONES CONTAINING OXINDOLES AS ANTIBACTERIAL AGENTS” (PFIZER INC, priority 2006, published 2009).
Values after ≈ are worked out from the molar mass of the structure shown.

What was measured:
Format in all cases: cell-based
E. faecalis MGH-2 EF 1-1 = assay: in vitro antibacterial activity MIC, E. faecalis; conditions: Enterococcus faecalis, MGH2EF11; strain MGH-2 EF 1-1; read-out: MICs E. faecalis MGH-2 EF 1-1
Text: (§1) The in vitro antibacterial activity of the compounds of the present invention may be assessed by following procedures recommended in (1) National Committee for Clinical Laboratory Standards (January 2003), Methods for dilution antimicrobial tests for bacteria that grow aerobically, Approved Standard (6th ed), M7-A6, NCCLS, Wayne, Pa.; (2) National Committee for Clinical Laboratory Standards (March 2001), Methods for antimicrobial susceptibility testing of anaerobic bacteria, Approved Standard (5th ed), M11-A4, NCCLS, Wayne, Pa.; (3) National Committee for Clinical Laboratory Standards (Jan. 2003), MIC testing supplemental tables, M100-S13 (for use with M7-A6), NCCLS, Wayne, Pa.; and (4) Murray P R, Baron E J, Jorgensen J H, et al. Manual of Clinical Microbiology (8th ed) Washington, D.C.: American Society for Microbiology Press, 2003. The antibacterial activity can be presented in the form of MIC value. The MIC value is the lowest concentration of drug, which prevented macroscopically visible growth under the conditions of the test.

S. aureus UC-76 SA-1 = assay: in vitro antibacterial activity MIC, S. aureus; conditions: Staphylococcus aureus, UC76; strain UC-76 SA-1; read-out: MICs S. aureus UC-76 SA-1
Text: as §1

S. pneumoniae SV1 SP-3 = assay: in vitro antibacterial activity MIC, S. pneumoniae; conditions: Streptococcus pneumoniae, SV1SP3; strain SV1 SP-3; read-out: MICs S. pneumoniae SV1 SP-3
Text: as §1

| Compound | MIC (E. faecalis MGH-2 EF 1-1) [µg/mL] | MIC (S. aureus UC-76 SA-1) [µg/mL] | MIC (S. pneumoniae SV1 SP-3) [µg/mL] |
| --- | --- | --- | --- |
| CCN1C(=O)Cc2cc(N3C[C@H](Cn4ccnn4)OC3=O)ccc21 [Example 2] | 8 (≈ 24.4 µM) | 4 (≈ 12.2 µM) | 4 (≈ 12.2 µM) |
| CC(C)N1C(=O)Cc2cc(N3C[C@H](Cn4ccnn4)OC3=O)ccc21 [Example 1, (R)-5-((1H-1,2,3-triazol-1-yl)methyl)-3-(1-isopropyl-2 oxoindolin-5-yl)oxazolidin-2-one] | 8 (≈ 23.4 µM) | 8 (≈ 23.4 µM) | 8 (≈ 23.4 µM) |
